Entries after “also recorded” stand apart in the source; their conditions may differ.
Columns and labels:
C3H10T1/2 cells = test: Clock and Wnt gene/protein expression in C3H10T1/2 cells; format: cell-based; conditions: for β-catenin protein level during adipogenic differentiation: 1 μM, before and after adipogenic induction; for mRNA levels of Wnt ligands and receptors / clock gene expression: 10T1/2 cells; for mRNA levels of Wnt ligands and receptors: 6 hours; for clock gene expression: RT-qPCR
Experimental: Immunoblot analysis. Total protein was extracted using lysis buffer containing 3% NaCl, 5% Tris-HCl, 10% Glycerol, 0.5% Triton X-10 in MilliQ water with protease inhibitor cocktail. 20-40 μg of total protein was resolved on 10% SDS-PAGE gels followed by immunoblotting on PVDF membranes (Bio-rad). Membranes were developed by chemiluminescence (SuperSignal West Pico, Pierce Biotechnology) and signals were obtained via a chemiluminescence imager (Amersham Imager 680, GE Biosciences).
RNA extraction and RT-qPCR analysis. PureLink RNA Mini Kit (Invitrogen) were used to isolate total RNA from cells. cDNA was generated using Revert Aid RT kit (ThermoFisher) and quantitative PCR was performed using SYBR Green Master Mix (Thermno Fisher) in triplicates on ViiA 7 Real-Time PCR System (Applied Biosystems). Relative expression levels were determined using the comparative Ct method with normalization to 361B4 as internal control.

C57/BL6 wild-type mice = test: Cardiotoxin-induced acute muscle injury, intramuscular injection into TA muscle; format: in vivo, mouse; conditions: for eMyHC staining (new myofiber formation): after cardiotoxin injury, local intramuscular injection
From the text: FIGS. 42A-42B. CHX and CM002 promote nascent myofiber formation upon acute muscle injury. To determine whether the effect of CHX and CM002 on promoting myogenesis leads to improved muscle regeneration in vivo, we tested local intramuscular injection into TA muscle following acute injury by cardiotoxin in normal C57/BL6 wild-type mice. […] Collectively, these findings indicate that these clock-activating molecules are capable of inducing myogenic response via local administration leading to sustained new myofiber formation following acute muscle injury.

Wnt signaling activity [1] = test: TOPFlash luciferase reporter assay (Example 3); format: cell-based; conditions: for TOPFlash reporter activity, Wnt-stimulated: Wnt3a media
Experimental: (§1) TOPFlash luciferase reporter assay. M50 Super 8×TOPFlash luciferase reporter containing Wnt-responsive TCF bindings sites was a gift from Randall Moon (Veeman, Slusarski, Kaykas et al., 2003) obtained from Addgene (Addgene plasmid #12456). Cells were seeded and grown overnight, and cell transfection was performed at 90% confluency. 24 hours following transfection, cells were treated using 10% Wnt3a conditioned media obtained from L Wnt-3A cell line (ATCC CRL-2647) to induce luciferase activity. Luciferase activity was assayed using Dual-Luciferase Reporter Assay Kit (Promega) in 96-well black plates. TOPFlash luciferase reporter luminescence was measured on microplate reader (TECAN infinite M200pro) and normalized to control FOPFlash activity, as previously described (Guo et al., 2012). The mean and standard deviation values were calculated for each well and graphed.

Wnt signaling activity [2] = test: TOPFlash luciferase reporter (Wnt activity) in U2OS cells; format: cell-based; conditions: for TOPFlash reporter activity, Wnt3a-containing media: Wnt3a stimulated; for TOPFlash Wnt activity, basal condition: without Wnt stimulation
Experimental: FIGS. 20A-20F. Effect of CM002 on activating circadian clock function. […] We tested the effect of CM002 from 0.2-5 μM on clock modulation in […] cells containing Per2::dLuc reporter using Lumicycle by monitoring chemiluminescence recordings for 6 days. The results were presented using the average original luminescence (FIG. 20A) or baseline-adjusted presentation (FIG. 20B). […] Based on the known clock effect on stimulating Wnt signaling activity, we used a TCF4 promoter-driven TOPFlash luciferase reporter to determine the effect of CM002 on Wnt pathway and compared this activity with CHX.
as §1

[3] = system: dystrophin-deficient mdx primary myoblasts; test: Myogenic differentiation of mdx primary myoblasts (MyHC staining); format: cell-based, mouse; conditions: for mature myofiber/myocyte formation (MyHC staining): 2% FBS, vs DMSO
From the text: FIGS. 16A-16B. Pro-myogenic effect of chlorhexidine on dystrophin-deficient mdx primary myoblasts. FIG. 16A: We used primary myoblasts isolated from male mdx mice as a cellular model to test the effect of CHX on myogenesis. […] Both of the pro-myogenic and proliferative effects of CHX observed in mdx primary myoblasts were consistent with prior findings from C2C12 myoblasts. Additional validations of these effects are on-going using myoblasts derived from human DMD patients.
FIGS. 22A-22B. […] Using primary myoblasts isolated from mdx mice, we determined CM002 effect on myogenesis in this dystrophic disease cellular model. […] Similar as shown in C2C12 myoblasts, this effect was stronger than that of CHX.

[4] = system: U2OS cells containing Per2::dLuc luciferase reporter; test: Real-time bioluminescence monitoring of Per2::Luciferase reporter in U2OS cells (LumiCycle); format: cell-based; conditions: for Modulatory Property: clock-modulatory classification
Experimental: U2OS cells or mouse fibroblasts (MF) containing a Per2-luciferase reporter (Yoo et al., 2004) were seeded at 4×10^5 concentration on 24 well plates and treated at 90% confluence with 1 ml 1×Fresh explant medium with desired compounds and controls. The seeding density was decided after trying several densities and choosing the one that after 24 h lead to 90% confluence. 1× Fresh explant medium was produced using 50% 2×DMEM buffer stock [DMEM powder (Gibco—Thermo Fisher CN: 12800-017), Sterile MilliQ water, pH7 1 M HEPES (Gibco—Thermo Fisher CN:15630080) and 7.5% Sodium Bicarbonate (Gibco—Thermo Fisher CN: 25080094)], 10% FBS (Cytiva), 37.9% Sterile MiliQ water, 1% PSG 100× (Gibco—Thermo Fisher CN: 10378016), 0.1% Sodium Hydroxixe (NaOH) 100 mM (Fishel Chemical CN: S318-500), 1% XenoLight D-Luciferin—Monopotassium Salt Bioluminiscent Substrate 100 mM (PerkinElmer CN: 122799). Treated cells were introduced to the LumiCycle96 (ActiMetrics) were they were cultured and Per2-luciferafe reporter luminescence was measured for 6 days. Raw and subtracted results for 5 days were exported and data was calculated as luminescence counts per second.

[5] = U2OS Per2 luciferase reporter, recording 5-6 days, vs DMSO

Question: How did the “β-catenin protein level during adipogenic differentiation” value (C3H10T1/2 cells) turn out when [H]/N=C(\N/C(=N/[H])NCCCCCCNC(=N)NC(=N)Nc1ccc(Cl)cc1)Nc1ccc(Cl)cc1 [CHX, chlorhexidine] was run?
Answer: sufficient to re-activate the lost b-catenin protein level during adipogenic differentiation

Question: And the “mRNA levels of Wnt ligands and receptors” value (C3H10T1/2 cells)?
Answer: induced the mRNA levels of Wnt1, Wnt10a, Fzd2, Fzd5

Question: And the clock gene expression (C3H10T1/2 cells)?
Answer: inductions of Pers and Crys

Question: What about the Pax7 protein (C57/BL6 wild-type mice; CTX-injected TA muscle) of the same molecule?
Answer: robustly increased

Question: And the “eMyHC staining (new myofiber formation)” value (C57/BL6 wild-type mice)?
Answer: substantial amount of eMyHC staining indicative of sustained nascent myofiber regeneration

Question: What about the “TOPFlash reporter activity, basal condition” value (Wnt signaling activity [1]) of the same molecule?
Answer: could induce Wnt signaling activity

Question: And the “TOPFlash reporter activity, Wnt-stimulated” value (Wnt signaling activity [1])?
Answer: could induce Wnt signaling activity

Question: What about the “TOPFlash reporter activity, Wnt3a-containing media” value (Wnt signaling activity [2]) of the same molecule?
Answer: significantly induced

Question: What about the “TOPFlash Wnt activity, basal condition” value (Wnt signaling activity [2]) of the same molecule?
Answer: augmented Wnt activity at basal condition

Question: What about the “pro-myogenic effect in Bmal1-deficient (BMKO/mdx) primary myoblasts” value ([3]; day 3 of differentiation) of the same molecule?
Answer: abolished in Bmal1-deficient mdx primary myoblasts

Question: And the “mature myofiber/myocyte formation (MyHC staining)” value ([3]; day 3 of differentiation)?
Answer: significantly elevated formation of mature myofibers

Question: What about the “toxicity in reporter cells” value ([4]; CHX at 5 and 10 μM) of the same molecule?
Answer: significant toxicity with reduced amplitude

Question: What about the “effective concentration range, dose response of bioluminescence activity” value ([4]; Per2-Luc U2OS cells) of the same molecule?
Answer: 0.2 to 2 µM

Question: What about the circadian period length [4, 5] of the same molecule?
Answer: dose-dependent reduction of period length from 0.2 to 1 μM

Question: What about the clock cycling amplitude [4, 5] of the same molecule?
Answer: at a low concentration of 0.2 μM induced clock amplitude, but not at any higher concentrations examined

Question: What about the “Modulatory Property” value [4] of the same molecule?
Answer: clock activator

Question: Which “β-catenin protein level during adipogenic differentiation” value (C3H10T1/2 cells) does the source give for CCCCCC/C=N/C(=N)NC(=N)Nc1ccc(Cl)cc1 [CM002] here?
Answer: partially reverse the decline of β-catenin level at the differentiated state

Question: And the “mRNA levels of Wnt ligands and receptors” value (C3H10T1/2 cells)?
Answer: significant induction of Wnt ligands including Wnt1 and Wnt10a transcripts

Question: What about the clock gene expression (C3H10T1/2 cells) of the same molecule?
Answer: induction of core clock transcription activators, CLOCK and Bmal1, together with up-regulation of its direct transcriptional target within the molecular clock loop, Nr1d1

Question: And the “MyoD, Myf5 and Myogenin levels” value (C57/BL6 wild-type mice; CTX-injected TA muscle)?
Answer: elevated levels of MyoD, Myf5 and Myogenein

Question: What about the Pax7 protein (C57/BL6 wild-type mice; CTX-injected TA muscle) of the same molecule?
Answer: robustly increased

Question: What about the “eMyHC staining (new myofiber formation)” value (C57/BL6 wild-type mice) of the same molecule?
Answer: substantial amount of eMyHC staining indicative of sustained nascent myofiber regeneration

Question: What about the “TOPFlash reporter activity, basal condition” value (Wnt signaling activity [1]) of the same molecule?
Answer: sufficient to stimulate TOPFlash reporter activity to a similar degree as CHX

Question: And the “TOPFlash reporter activity, Wnt-stimulated” value (Wnt signaling activity [1])?
Answer: at lower concentrations at 0.1 and 0.2 μM were sufficient to induce TOPFlash reporter activity comparable to that of CHX at 0.5 μM

Question: And the “TOPFlash reporter activity, Wnt3a-containing media” value (Wnt signaling activity [2])?
Answer: 0.1 μM of CM002 comparable to that of CHX induction at 1 μM

Question: What about the “TOPFlash Wnt activity, basal condition” value (Wnt signaling activity [2]) of the same molecule?
Answer: augmented Wnt activity at basal condition

Question: What about the “myotube fusion, cells seeded at low density” value ([3]; 1 μM vs 0.5 μM, day 3) of the same molecule?
Answer: more advanced myotube fusion than that of 0.5 μM

Question: And the “mature myofiber/myocyte formation (MyHC staining)” value ([3]; day 3 of differentiation)?
Answer: significantly enhanced mature myocyte formation induced by 0.5 μM CM002 treatment

Question: What about the “LumiCycle Result: Clock activity, Amplitude” value ([4]; Table 1, U2OS Per2::dLuc) of the same molecule?
Answer: Amplitude: Increased

Question: What about the “LumiCycle Result: Clock activity, Period” value ([4]; Table 1, U2OS Per2::dLuc) of the same molecule?
Answer: Period: Shortening

Question: And the “LumiCycle Result: Clock activity (overall)” value ([4]; U2OS Per2::dLuc, CHX analogs screened)?
Answer: strongest effect on activating circadian clock function

Question: And the circadian period length [4, 5]?
Answer: shortening of period length starting at 0.2 μM that was maintained at 2 μM; also recorded: dose-dependent effect on inducing clock period length shortening

Question: What about the “Modulatory Property” value [4] of the same molecule?
Answer: strong clock activator

Source: patent publication US20250100962A1 (CITY OF HOPE, priority 2023, published 2025)
